For assay [1], the system named is ER positive, HER2 negative advanced breast cancer. In words: Phase 1 dose-escalation and expansion clinical trial: anti-tumour activity by RECIST 1.1. It counts as in vivo, human. The following applies: for ORR (%) objective response rate: responders/evaluable (percent). The text has this: “Objective response rate” is the percentage of patients with measurable disease at baseline and who have a date of first dose of >17 weeks or a date of post-treatment scan of >15 weeks that indicates a confirmed response as measured by the RECIST criteria. “Clinical benefit rate” is the percentage of patients who have a date of first dose of ≥25 weeks or a date of post-treatment scan of >23 weeks that indicates a confirmed response or stable disease as measured by the RECIST criteria for >23 weeks post treatment. Introduction: To determine the optimal dosing regimen for AZD9833 Phase 1 dose-escalation and expansion in patients with ER positive, HER2 negative advanced breast cancer was carried out according to the following basic protocol. Overall Design: This is a multicentre dose escalation and expansion, first-in-human study designed to evaluate the safety and tolerability of AZD9833 alone (Parts A and B) in women with endocrine-resistant ER+HER2-breast cancer that is not amenable to treatment with curative intent. Efficacy Assessment: Anti-tumour activity will be evaluated using RECIST 1.1 by investigator assessments. Baseline tumour assessments should encompass all areas of known predilection for metastases in the disease under evaluation and should additionally investigate areas that may be involved based on signs and symptoms of individual subjects. Baseline assessments should be performed no more than 28 days before the start of AZD9833, ideally, as close as possible to the start of AZD9833. The methods of assessment used at baseline should be used at each subsequent assessment during treatment and follow-up part of the study. Any other sites at which new disease is suspected should also be appropriately imaged. If an unscheduled assessment is performed and the subject has not progressed, every attempt should be made to perform subsequent assessments at the scheduled visits while the subject remains on AZD9833 or until they have progressed. Categorisation of objective tumour response assessment will be based on the RECIST 1.1 guidelines for response: complete response (CR), partial response (PR), stable disease (SD), and progression of disease (PD). For subjects who only have non-measurable disease at baseline, categorisation of objective tumour response assessment will be based on the RECIST 1.1 guidelines for response for non-target lesions (NTLs): CR, PD, and non-CR/non PD. If the investigator is unsure whether progression has occurred, particularly with response to NTLs or the appearance of a new lesion, it is advisable to continue AZD9833 and reassess the subject's status at the next scheduled assessment, or sooner if clinically indicated. To achieve ‘unequivocal progression’ on the basis of non-target disease, there must be an overall level of substantial worsening in non-target disease such that, even in presence of SD or PR in the target disease, the overall tumour burden has increased sufficiently to merit discontinuation of therapy. A modest increase in the size of one or more NTLs is usually not sufficient to qualify for unequivocal disease progression status. A clinical trial according to the above protocol was carried out using 60 patients.

The subject of assay [2] is ER signalling pathway / Ki67. In words: Phase 1 clinical trial: pharmacodynamic biomarkers in paired tumour biopsies. It is filed as in vivo, human. The text has this: Pharmacodynamics: Pharmacodynamic measurements will be made on a number of biomarkers (e.g., optional tumour biopsies, plasma ctDNA, CTC, and archival tumour tissue). Biological samples (archival tumour tissue, mandatory and optional biopsies where applicable) will be collected for the analysis of tumour DNA as an exploratory objective in this study. A 2-mL blood sample for DNA isolation will be collected prior to administration of the first dose of AZD9833 from subjects who have consented to participate in the genetic analysis component of this study. If for any reason the sample is not drawn prior to dosing, it may be taken at any visit until the last study visit. Only one sample for genetic research should be collected per subject during the study. Participation is optional.
In Part A, paired tumour biopsy samples will be taken from at least 2 subjects at each dose level. In Part B, these biopsies will be taken from at least 5 post-menopausal subjects at each AZD9833 dose level, 300 mg, 150 mg and 75 mg and at least 5 from pre-menopausal subjects at 300 mg. If subjects are willing to participate in this part of the study, they will sign a biopsy-specific written informed consent. Paired tumour biopsies will be obtained from subjects with accessible tumours who have consented to biopsies. […]

Regarding `C[C@@H]1Cc2c(ccc3[nH]ncc23)[C@@H](c2ccc(NC3CN(CCCF)C3)cn2)N1CC(F)(F)F` [AZD9833, N-(1-(3-fluoropropyl)azetidin-3-yl)-6-((6S,8R)-8-methyl-7-(2,2,2-trifluoroethyl)-6,7,8,9-tetrahydro-3H-pyrazolo[4,3-f]isoquinolin-6-yl) pyridin-3-amine], the “CBR (%) clinical benefit rate at 24 weeks” value in assay [1] (25 mg QD oral (n = 12)) is 4/12 (33.3) %; in assay [1] (75 mg QD oral (n = 12)), 8/12 (66.7) %; in assay [1] (150 mg QD oral (n = 13)), 4/13 (30.8) %; in assay [1] (300 mg QD oral (n = 13)), 3/11 (27.3) %; in assay [1] (450 mg QD oral (n = 10)), 3/4 (75.0) %; in assay [1] (Total, all doses (n = 60)) it was 22/52 (42.3) %. The “ORR (%) objective response rate” value in assay [1] (25 mg QD oral (n = 12)) is 1/9 (11.1) %; in assay [1] (75 mg QD oral (n = 12)), 1/7 (14.3) %; in assay [1] (150 mg QD oral (n = 13)), 2/11 (18.2) %; in assay [1] (300 mg QD oral (n = 13)), 2/10 (20.0) %; in assay [1] (450 mg QD oral (n = 10)), 1/6 (16.7) %; in assay [1] (Total, all doses (n = 60)), 7/43 (16.3) %. Besides, the “Evidence of clinical benefit and target engagement” value in assay [1] (women with ER+ ABC, incl. pre-treated with CDK4/6 inhibitors and fulvestrant, and ESR1 mutations) is “observed at all dose levels”. Also, in assay [2] (all dose cohorts), the “ER signalling pathway modulation” value is listed as “observed in all dose cohorts”. The “reduction in Ki67” value in assay [2] (patients where clinical responses occurred and paired biopsies obtained) came to 98%.

The values are drawn from patent US12364689B2, “Dosage regimen for the treatment of cancer” (AstraZeneca AB, priority 2020, dated 2025).
